# Entries after “also recorded” stand apart in the source; their conditions may differ.
# Legend:
# [1] = test system: β-III tubulin; test: Western blot of neuronal marker in 3D aggregates; assay type: cell-based, human; conditions: pre-incubation with 5µM Pyr-sulf or 200nM Idebenone, normalized to GAPDH
# Experimental: (§1) NT2 aggregates and N9 protein samples western blot analysis was performed accordingly to[41]. Aggregates were lysed with TX-100 lysis buffer (50 mM Tris, 5 mM EDTA, 150 mM NaCl, 1% Triton X-100, pH 7.4) and N9 protein extraction was performed with RIPA buffer. Primary antibodies were incubated overnight at RT, followed by secondary antibodies (horseradish peroxidase-conjugated, ECL anti-mouse IgG, anti-rat IgG or anti-rabbit IgG; Pierce, Millipore and GE Healthcare), incubated for 2 h at room temperature. Anti-GAPDH antibody (Thermo Scientific) was used as loading control. Primary antibodies used for protein detection were: anti-βIII-Tubulin (Millipore), anti-GFAP (DAKO), and MitoProfile Total OXPHOS WB primary antibody cocktail (Abcam), anti-phospho-NF-κB p65 (ser536) antibody (Cell Signalling), anti-NF-κB p65 (C-20) (Santa Cruz Biotechnology), and anti-IκB-α (C-21) antibody (Santa Cruz Biotechnology). Membranes were developed using Amersham ECL Prime Western Blotting Detection Reagent (GE Healthcare) and visualized using a ChemiDocTM XRS + System (BioRad).
# [2] = set-up: method as in PMID 25571923; conditions: human plasma samples; cited from earlier work
# [3] = test system: HBMEC line; test: Endothelial transport across confluent HBMEC two chamber BBB model, LC-Orbitrap MS; assay type: in vitro ADME, human; conditions: for Endothelial transport (lower/(upper+lower) compartment): 5 μM in upper chamber, 2 h of incubation
# Experimental: We used the well-validated confluent HBMEC two chamber BBB model[32] to investigate endothelium transport with metabolite quantification by Orbitrap LC-MS techniques. (Poly)phenol metabolites were added in the upper chamber and their putative transport through the BBB endothelium assessed after 2 h of incubation (Fig. 1a).
# Human brain microvascular endothelial cell (HBMEC) line was used as a simplified and validated in vitro model of the BBB[32], [44], [45], [62]. This cell line was derived from primary cultures of HBMEC transfected with SV40 large T antigen. HBMEC line was cultured in RPMI 1640 medium (Sigma-Aldrich) supplemented with 10% fetal bovine serum (FBS - Biochrom AG), 10% NuSerum IV (BD Biosciences), 1% non-essential amino acids (NEAA - Biochrom AG), 1% minimal essential medium (MEM) vitamins (Biochrom AG), 1 mM sodium pyruvate (Biochrom AG), 2mM L-glutamine (Biochrom AG), and 1% antibiotic-antimycotic solution (Sigma-Aldrich). For immunostaining and cytoprotection studies, cells were seeded at a density of 8 × 10^4 cell/mL in 24-well and 96-well plates, respectively, and treated after 48 h in culture. For integrity and transport studies, cells were seeded on polyester transwell inserts (0.4 μm, Corning Costar Corp., USA) at a density of 8 × 10^4 cell/insert and treated after 8 days in culture. Inserts and plates were coated with rat-tail collagen-I (BD Biosciences, Erembodegem, Belgium) before seeding. All experiments were performed after monolayer formation.
# HBMEC were plated in semi-permeable membranes (inserts) placed in cell culture wells. This two-chamber system, where the upper and lower chambers mimic the blood and brain compartments, respectively, and the confluent HBMEC monolayer represents the BBB. Transport assays were conducted in HBSS (Hank’s Balanced Salt Solution) with calcium and magnesium (Gibco), supplemented with 0.1% FBS. Confluent monolayers of HBMEC were incubated with 5 μM of each compound for 2 h, time described for compounds to interact and/or being transported across cells, [69]. […]. Monolayer integrity was ensured in all experiments as described. In the end, cell medium from upper and lower compartments were collected and frozen at −80 °C until analysis. Transport analysis were performed after sample deproteinization by LC-Orbitrap MS as described below.
# To 1 mL of upper or lower compartment cell medium it was added: 139 µL of 50% formic acid, ascorbic acid (final concentration of 1 mM) and taxifolin as internal standard (final concentration of 9 µM). To precipitate proteins, 2.5 mL of ACN was added dropwise and samples were vortexed before centrifugation at 3200 g for 15 min. The supernatant was removed and dried under centrifugal evaporation (CentriVap Vaccum Concentrator, Labconco). Samples were dissolved in 5% ACN in 0.1% formic acid and immediately analyzed by LC-Orbitrap MS.
# Samples were separated on an HPLC Accela 600 HPLC system (Thermo Scientific, Bremen, Germany) using a C18 Synergi Hydro RP18 column (Phenomenex, Macclesfield, UK) 4 μm particle size and dimensions 2 mm ID × 150 mm. […] Analysis was done on an LTQ OrbitrapTM XL hybrid mass spectrometer (Thermo Scientific, Bremen, Germany).
# MS analysis was performed using data-dependent Nth order double play analysis comprising full scan mass range 80–2000 amu, 30 000 resolution, data-type centroid and data dependent MS/MS (60 s of exclusion duration) on the top three most intense ions detected above threshold automatically in the independent scan event. ESI settings were as follows: source voltage, 3.4 kV; capillary temperature was 275 °C with a sheath gas at 40 psi and auxiliary gas at 5 psi. MS data handling software (Xcalibur QualBrowser software, Thermo Electron Corp.) was used to search for predicted metabolites by their appropriate m/z value. All peaks were checked for m/z value and fragmentation products. […]
# [4] = test system: HBMEC line; test: Cytoprotection in HBMEC submitted to oxidative stress (H2O2); assay type: cell-based, human; conditions: pre-incubation 5 µM 24 h, then 300 µM H2O2 24 h
# Experimental: HBMEC were incubated in the presence of H2O2 (Sigma-Aldrich). Briefly, 24 h after seeding, cells growth medium was removed and cells were pre-incubated for 24 h with 5 µM of each compound. After pre-incubation, media was replaced by new media containing 300 µM H2O2, for 24 h[71], [72]. In the end, medium was removed and cell viability was assessed using the CellTiter-Blue® Cell Viability Assay (Promega), according to the manufacturer’s instructions.
# [5] = test system: 3D aggregates containing neurons and astrocytes (NT2); test: Neuroprotection in 3D co-cultures of neurons and astrocytes (t-BHP injury); assay type: cell-based, human; conditions: pre-incubation 5 µM 24 h, then 300 µM t-BHP, 48 h
# Experimental: NTera-2/cl.D1 (NT2) cells, obtained from American Type Cell Culture Collection (ATCC), were differentiated in stirred suspension culture systems, as 3D aggregates, as previously described. A single cell suspension of undifferentiated NT2 cells was seeded in DMEM (Dulbeco Minimum Essential Media), 10% FBS, 1% P/S (all from Invitrogen), in a 125 mL spinner vessel equipped with ball impeller (Wheaton). After three days of aggregation, differentiation was induced by addition of 10 µM retinoic acid (Sigma-Aldrich), for three weeks, with a 50% medium exchange performed every 2–3 days. Following this period (from day 24 onwards), the medium was composed by DMEM, 5% FBS, 1% P/S. Stable 3D co-cultures of neurons and astrocytes were maintained up to day 50 of culture and applied in neuroprotection assays (from day 38 to day 50).
# Cell viability was accessed before exposure to test compounds, before t-BHP lesion induction and 48 h after lesion induction by PrestoBlue® Cell Viability Reagent (Thermo Fisher Scientific), accordingly to manufacturer’s instructions. Idebenone (provided by Grupo Tecnimede) was used as positive control. Final cell viability was calculated as a percentage of cell viability before lesion induction.
# [6] = test system: NF-κB p65; test: NF-κB p65 phosphorylation (ser536) ratio in N9 microglia (western blot); assay type: cell-based, murine; conditions: N9 cells; pre-treatment before LPS; 15 to 60 min
# Experimental: N9 microglial cells were plated into 6-well plates (5 × 10^5 cells mL^−1) and then pre-incubated with 5 µM of each (poly)phenol metabolite. After 6 h, medium was discarded and cells were washed once with phosphate buffer saline (PBS) prior to addition of fresh medium with 300 ng/mL lipopolysaccharide from Escherichia coli 055:B5 (LPS, Sigma–Aldrich). Pro-inflammatory mediators release to medium were quantified as described below.
# as §1, with “Membranes were developed using Amersham ECL Prime Western Blotting Detection Reagent (GE Healthcare) and visualized using a ChemiDocTM XRS + System (BioRad).” left out
# [7] = target: T1, P-gp (Homo sapiens, UniProt P08183); test: P-gp functional assay, Rhodamine 123 accumulation in HBMEC; assay type: cell-based; conditions: 5 μM
# T1 construct: endogenous in cells; host or cells: HBMEC line (human brain microvascular endothelial cells immortalised with SV40 large T antigen)
# Experimental: Activity of each efflux transporter was determined by measuring cellular accumulation of respective substrate[65], [66], and results were expressed as fold-change compared to the respective control. […] The solution was quickly removed, HBMEC were washed three times with PBS and solubilized in 0.1 M NaOH. Substrate content was determined using a FLUOstar Omega fluorescent plate reader (BMG Labtechnologies, Ortenberg, Germany; for P-gp, excitation at 505 nm, emission at 534 nm; for MRP1, excitation at 495 nm, emission at 516 nm; for BCRP excitation at 503 nm, emission at 512 nm). […] Protein content was evaluated by the Bradford method[67] using Bio-Rad’s Protein Assay reagent (Bio-Rad).
# [8] = test system: primary mouse cerebellar granule cells; test: Neuroprotection in cerebellar granule cells exposed to glutamate excitotoxicity; assay type: cell-based; conditions: pre-incubation 5 µM 24 h, then 100 µM glutamate 24 h
# Experimental: Primary cultures of cerebellar granule cells were prepared according to the already described method. Cells were isolated from cerebella of 7d-old BALB-C mice and 0.5 × 10^6 cell/mL were cultured in Neurobasal Medium (Gibco) supplemented with 2% B-27 without antioxidants (Gibco) and 2% KCl (20 mM, Sigma-Aldrich), containing 0.25% L-glutamine (200 mM, Sigma-Aldrich) and 0.48% penicillin-streptomycin (P/S, 5000 U mL^−1, Gibco). Experiments were performed on 24-well plates with coverslips coated with 50 µg/mL poly-D-lysine (Sigma-Aldrich). 20 µM of cytosine arabinoside (Sigma-Aldrich) was added 48 h after inoculation to prevent glia cell proliferation. All the experiments were performed between days 7–11 in culture.
# Physiological concentrations (5 µM) of the two most abundant metabolites were added to the cells at 7 d in culture. Cells were then incubated for 24 h and morphology was evaluated. At day 8 in culture, 100 µM of glutamate (Sigma-Aldrich) was added to the respective wells. Cells were incubated for another 24 h, morphology was evaluated and viability determined by fluorescence microscopy through Propidium Iodide (PI) and Hoechst 33342 staining, as previously described.
# [9] = test system: HBMEC; test: HBMEC metabolization: search for novel cellular metabolites by LC-Orbitrap MS; assay type: in vitro ADME, human; conditions: after addition of Pyr-sulf in upper compartment; compared with acetylcysteine-pyrogallol
# Experimental: Search for novel compounds resulting from HBMEC metabolization was performed in the same samples using Xcalibur QualBrowser software using an in-house database of putative bioavailable (poly)phenol metabolites[30]. Putative ID of predicted metabolites was determined by exact mass, according to their appropriate m/z value.
# T1 sequence (P08183 whole entry): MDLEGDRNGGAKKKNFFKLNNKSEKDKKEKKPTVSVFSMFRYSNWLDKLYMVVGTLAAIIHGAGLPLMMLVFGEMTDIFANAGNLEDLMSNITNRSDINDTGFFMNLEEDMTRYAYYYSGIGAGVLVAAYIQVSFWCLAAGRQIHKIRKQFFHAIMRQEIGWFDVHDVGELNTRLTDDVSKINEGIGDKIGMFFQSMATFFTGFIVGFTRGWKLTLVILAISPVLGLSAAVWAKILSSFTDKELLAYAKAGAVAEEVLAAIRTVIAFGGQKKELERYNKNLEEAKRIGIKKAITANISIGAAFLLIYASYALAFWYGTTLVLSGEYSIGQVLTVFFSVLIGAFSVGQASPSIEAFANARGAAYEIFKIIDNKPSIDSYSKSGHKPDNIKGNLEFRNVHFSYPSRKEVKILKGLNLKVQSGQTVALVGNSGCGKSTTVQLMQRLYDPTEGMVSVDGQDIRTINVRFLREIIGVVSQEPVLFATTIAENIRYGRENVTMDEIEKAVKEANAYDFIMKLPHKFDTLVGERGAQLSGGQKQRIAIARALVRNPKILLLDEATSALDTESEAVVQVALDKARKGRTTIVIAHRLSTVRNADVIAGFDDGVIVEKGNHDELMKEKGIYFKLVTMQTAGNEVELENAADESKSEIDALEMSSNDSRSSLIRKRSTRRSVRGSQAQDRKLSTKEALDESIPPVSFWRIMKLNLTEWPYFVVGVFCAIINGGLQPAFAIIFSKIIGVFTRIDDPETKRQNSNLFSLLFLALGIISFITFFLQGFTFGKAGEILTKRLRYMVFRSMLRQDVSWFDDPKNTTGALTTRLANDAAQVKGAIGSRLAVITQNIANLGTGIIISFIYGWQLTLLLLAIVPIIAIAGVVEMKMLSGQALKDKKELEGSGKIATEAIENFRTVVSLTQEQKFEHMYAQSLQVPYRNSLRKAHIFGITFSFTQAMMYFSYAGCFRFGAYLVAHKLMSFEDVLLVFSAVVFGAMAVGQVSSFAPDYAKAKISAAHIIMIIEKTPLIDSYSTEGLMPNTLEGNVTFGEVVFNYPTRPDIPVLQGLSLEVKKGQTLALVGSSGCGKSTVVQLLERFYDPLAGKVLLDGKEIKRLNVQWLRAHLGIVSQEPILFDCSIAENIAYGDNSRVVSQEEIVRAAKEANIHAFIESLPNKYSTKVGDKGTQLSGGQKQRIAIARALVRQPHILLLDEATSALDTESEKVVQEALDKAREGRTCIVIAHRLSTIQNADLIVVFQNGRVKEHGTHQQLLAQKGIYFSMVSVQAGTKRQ
Molecule,Cmax [2] [nM],Endothelial transport (lower/(upper+lower) compartment) [3],further results
COC1=C(OC)C(=O)C(CCCCCCCCCCO)=C(C)C1=O [idebenone],,,β-III tubulin protein levels after t-BHP lesion [1]: increased β-III tubulin protein levels
"COc1cc(C(=O)O)ccc1OS(=O)(=O)O [VA-sulf, Vanillic acid 4-O-sulfate]",1340 ± 1300,,
"COc1c(O)cc(C(=O)O)cc1OS(=O)(=O)O [4-MeGA-sulf, 4-O-methylgallic acid-3-O-sulfate]",2030 ± 1100,increased BBB permeation compared with 4-methylgallic acid (4-MeGA),
"O=S(=O)(O)Oc1c(O)cccc1O [Pyr-2-sulf, Pyrogallol-2-O-sulfate]",,detected only Pyr-2-sulf in the basolateral compartment,
"Cc1ccc(OS(=O)(=O)O)c(O)c1 [4-MeCat-sulf, 4-Methylcatechol O-sulfate]",640 ± 500,more effectively transported than catechol-O-sulfate (Cat-sulf); also recorded: higher endothelial transport percentage,
"COc1c(O)cccc1OS(=O)(=O)O [2-MePyr-sulf, 2-O-methylpyrogallol-1-O-sulfate]",1970 ± 1000,transported as effectively as Pyr-sulf,
"O=S(=O)(O)Oc1cccc(O)c1O [Pyr-1-sulf, Pyrogallol-1-O-sulfate]",,,"Endothelial transport after 24 h ([3]; Pyr-sulf mixture 5 μM, 24 h incubation): no transport"
1-O-methylpyrogallol-O-sulfate [1-MePyr-sulf],2880 ± 1800,less effectively transported,
"O=S(=O)(O)Oc1ccccc1O [Cat-sulf, Catechol-O-sulfate]",12200 ± 5900,,"Cell viability of HBMEC after H2O2 injury [4]: improved cell viability; Cell viability of 3D aggregates after t-BHP-induced injury [5]: significant neuroprotection; Kinetics of NF-κB phosphorylated-p65/total p65 ratio [6]: unchanged; P-gp activity (Rhodamine 123 accumulation) in the presence of metabolite [7]: no statistically- significant alterations; Cell viability of cerebellar granule cells under glutamate-induced excitotoxicity [8]: improved cell viability; Endothelial transport after treatment with BCRP specific inhibitor Ko 143 ([3]; 5 μM, 1 μM Ko 143, p < 0.05 relatively to No inhibitor): significant increase; Endothelial transport along time ([3]; 5 μM, 2, 6 and 24 h): significant increase in transport percentage"
N[C@@H](CCC(=O)N[C@@H](CSc1ccc(O)c(O)c1O)C(=O)NCC(=O)O)C(=O)O [Glutathionyl-pyrogallol],,,Relative abundance (peak areas) of novel metabolite [9]: detected in higher amounts
"COc1c(O)cc(C(=O)O)cc1O [4-MeGA, 4-O-methylgallic acid]",300 ± 100,,

# Source: article PMC5597593, “Polyphenols journey through blood-brain barrier towards neuronal protection” (Scientific Reports, 2017)
